Results published in PMC10003159, “Transcytosable Peptide-Paclitaxel Prodrug Nanoparticle for Targeted Treatment of Triple-Negative Breast Cancer” (International Journal of Molecular Sciences, 2023).
Where a SMILES comes first, the peptide text is derived from it. Where no end group is shown, it is not given here. The star is where a group is joined. X1 = CC(=O)O[C@H]1C(=O)[C@@]2(C)[C@H]([C@H](OC(=O)c3ccccc3)[C@]3(O)C[C@H](OC(=O)[C@H](OC(=O)CCC(=O)NCCN4C(=O)CC(*)C4=O)[C@@H](NC(=O)c4ccccc4)c4ccccc4)C(C)=C1C3(C)C)[C@]1(OC(C)=O)CO[C@@H]1C[C@@H]2O

Key:
4T1-mCherry-Luc cells = experiment: Wound healing migration assay; format: cell-based; settings: 24 h, mean ± SEM, n = 3
Description: The effect of PTX-SM-TAR NPs and PTX on 4T1-mCherry-Luc cell migration was evaluated with wound-healing assay. 4T1-mCherry-Luc cells were seeded in 6-well plates at a density of 3 × 10^5 cells per well. After overnight culture, the cells were wounded linearly by a 200 µL pipette tip. […] Images of 0 and 24 h were captured by an inverted microscope.

4T1-mCherry-Luc tumor = experiment: In vivo antitumor efficacy, subcutaneous TNBC model; set-up: species or system mice; settings: tail vein every two days, 16 d, n = 7
Description: Healthy female BALB/c mice (18–20 g) were purchased from Shandong University Laboratory Animal Center. Mice were housed in a pathogen-free environment under conditions of 25 ± 2 °C, 50 ± 5% relative humidity, and 12-h light/dark cycles. They were provided with food and water ad libitum. All animal experiment protocols were approved by the Ethics Committee of School of Pharmaceutical Sciences, Shandong University (22017) and implemented according to the regulations of the Shandong Council on Animal Care. To establish the mice TNBC model, 1.0 × 10^6 4T1-mCherry-Luc cells were subcutaneously injected into the left forelimb armpit of mice. […] solution was injected into mice through the abdominal and reacted with 4T1-mCherry-Luc cells to produce bioluminescence. Then, the fluorescence signals were observed and counted by an IVIS Spectrum imaging system (IVIS Kinetic).
Four days after tumor cell implantation, mice were randomly divided into four groups (n = 7). Seven mice in each group, a total of twenty-eight mice were used. Then, saline, TAR peptide (10.6 mg/kg), PTX (4 mg/kg), and PTX-SM-TAR NPs (15.6 mg/kg) were injected through the tail vein every two days. Tumor size and body weight were measured every 4 d. After 16 d of treatment, mice were sacrificed and tumors were removed, weighed, and further analyzed.

EA.hy926 cells = experiment: Cytotoxicity against normal cells; format: cell-based; settings: Figure S5, n = 3
[1] = system: 4T1-mCherry-Luc 3D tumor spheroids; experiment: Penetration in 3D tumor spheroids; format: cell-based; settings: 4 h incubation, LSCM, scanned at 10 μm interval
Description: After adding 150–200 μL of 2% agarose solution to each well, the 48-well plate was placed on the ultra-clean bench under UV irradiation for 30 min before solidification. The 4T1-mCherry-Luc cells were planted into the plate at the density of 4 × 10^4 cells per well and cultured in the incubator for one week. After the cells aggregated into spherical shapes, tumor spheroids were transferred to confocal dishes and incubated with PTX-SM-TAR/C6 NPs and coumarin-6 solution for 2 and 4 h. The tumor spheroids were washed with PBS, fixed with 4% paraformaldehyde for 30 min, and observed with LSCM.

Neuropilin 1 (NRP-1) = Neuropilin 1 (NRP-1) (UniProt O14786 22-923, The paper says only 'purified NRP-1 protein', immobilized on a CM5 chip. Species, construct and supplier are not printed. Human ectodomain (signal peptide removed, extracellular 22-856) is taken by co); experiment: SPR; Biacore T200; purified NRP-1 immobilised on a CM5 chip; gradient-diluted TAR peptide flowed over; HBS-EP running buffer; settings: both partners purified
Neuropilin 1 (NRP-1), sequence (O14786 22-923): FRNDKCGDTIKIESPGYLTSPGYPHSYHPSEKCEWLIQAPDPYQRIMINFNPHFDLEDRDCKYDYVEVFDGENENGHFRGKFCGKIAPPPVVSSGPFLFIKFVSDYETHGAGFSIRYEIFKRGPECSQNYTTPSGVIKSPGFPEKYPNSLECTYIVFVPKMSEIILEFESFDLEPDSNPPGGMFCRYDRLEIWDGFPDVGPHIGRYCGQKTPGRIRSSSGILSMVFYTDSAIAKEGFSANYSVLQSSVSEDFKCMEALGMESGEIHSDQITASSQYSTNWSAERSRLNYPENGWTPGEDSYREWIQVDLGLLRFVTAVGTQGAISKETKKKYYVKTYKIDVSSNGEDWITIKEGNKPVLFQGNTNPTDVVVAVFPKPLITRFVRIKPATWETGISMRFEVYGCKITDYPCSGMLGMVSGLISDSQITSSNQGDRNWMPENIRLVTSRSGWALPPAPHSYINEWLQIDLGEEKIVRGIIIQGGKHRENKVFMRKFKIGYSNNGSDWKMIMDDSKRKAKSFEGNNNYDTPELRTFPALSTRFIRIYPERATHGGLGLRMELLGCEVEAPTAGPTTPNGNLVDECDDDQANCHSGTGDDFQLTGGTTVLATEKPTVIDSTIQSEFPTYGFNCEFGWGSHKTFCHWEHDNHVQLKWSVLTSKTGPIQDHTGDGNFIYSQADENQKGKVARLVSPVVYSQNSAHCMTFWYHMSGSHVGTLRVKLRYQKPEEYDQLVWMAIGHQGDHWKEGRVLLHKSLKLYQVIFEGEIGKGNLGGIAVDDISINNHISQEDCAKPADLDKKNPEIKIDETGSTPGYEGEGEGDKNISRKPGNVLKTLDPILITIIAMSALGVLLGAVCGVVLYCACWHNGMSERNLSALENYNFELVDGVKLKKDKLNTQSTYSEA

Row | Molecule | body weight of mice during the experiment (4T1-mCherry-Luc tumor) | toxicity to normal cells (EA.hy926 cells) | further results
1 | CC(=O)O[C@H]1C(=O)[C@@]2(C)[C@H]([C@H](OC(=O)c3ccccc3)[C@]3(O)C[C@H](OC(=O)[C@H](O)[C@@H](NC(=O)c4ccccc4)c4ccccc4)C(C)=C1C3(C)C)[C@]1(OC(C)=O)CO[C@@H]1C[C@@H]2O [PTX, paclitaxel] | remained stable | slight toxicity to normal cells in the low-concentration | migration rate (4T1-mCherry-Luc cells; 10 nM): 32.53 ± 1.43%; migration rate (4T1-mCherry-Luc cells; 100 nM): 18.96 ± 2.76%; tumor inhibition rate (4T1-mCherry-Luc tumor; TAR 10.6 mg/kg, PTX 4 mg/kg, PTX-SM-TAR NPs 15.6 mg/kg, tumor weight): 28.47%
2 | CC(=O)O[C@H]1C(=O)[C@@]2(C)[C@H]([C@H](OC(=O)c3ccccc3)[C@]3(O)C[C@H](OC(=O)[C@H](OC(=O)CCC(=O)NCCN4C(=O)CC(SC[C@H](N)C(=O)N[C@@H](CCCNC(=N)N)C(=O)N[C@@H](CCCCN)C(=O)N[C@@H](CCCCN)C(=O)N[C@@H](CCCNC(=N)N)C(=O)N[C@@H](CCCNC(=N)N)C(=O)N[C@@H](CCC(N)=O)C(=O)N[C@@H](CCCNC(=N)N)C(=O)N[C@@H](CCCNC(=N)N)C(=O)N[C@@H](CCCNC(=N)N)C(=O)N[C@@H](C)C(=O)N[C@H](C(=O)N[C@@H](Cc5c[nH]c6ccccc56)C(=O)N[C@@H](CC(C)C)C(=O)N5CCC[C@H]5C(=O)N5CCC[C@H]5C(=O)N[C@@H](CCCNC(=N)N)C(=O)O)[C@@H](C)O)C4=O)[C@@H](NC(=O)c4ccccc4)c4ccccc4)C(C)=C1C3(C)C)[C@]1(OC(C)=O)CO[C@@H]1C[C@@H]2O (stereo partly shown) [PTX-SM-TAR NPs] (H-C(X1)RKKRRQRRRATWLPPR-OH) | remained stable | same trend as the PTX | 
3 | CCN(CC)c1ccc2cc(-c3nc4ccccc4s3)c(=O)oc2c1 [coumarin-6] |  |  | fluorescence distribution in tumor spheroids along Z-axis [1]: gradually disappeared after the Z-axis exceeded 60 μm
4 | CRKKRRQRRRATWLPPR [TAR] | remained stable |  | 
5 | CRKKRRQRRRATWLPPR (also called fused peptide TAR; bifunctional fusion peptide of TAT and A7R; source: synthetic peptide (China Peptide Co., Ltd.)) [TAR peptide] |  |  | Kd (Neuropilin 1 (NRP-1)): 34 nM
